{"source": "patent US12351583B2", "about": "“Triazolopyrimidines based on thymine nucleobase and methods for producing them” (TERA STONE CO., LTD, priority 2019, dated 2025)", "key": {"[1]": {"test_system": "CCRF-HSB-2 cells (human acute lymphoblastic leukemia)", "test": "MTT cell proliferation inhibition assay, CCRF-HSB-2 cells", "assay_type": "cell-based", "conditions": "for IC50: MTT assay, cultured 3 days, probit analysis, read-out: Inhibitory concentration against tumor cell lines in vitro IC50, CCRF-HSB-2; for cell proliferation inhibitory activity compared with 5-FU, CCRF-HSB-2 cells: comparison of IC50 with control drug 5-FU", "procedure": "(§1) Regarding the synthesized triazolopyrimidine compounds, their cell proliferation inhibitory activities, as an index of antitumor acttivity, were examined. The test was performed by MTT assay (T. Mosmann, J. Immunol. Methods, 65, 55 (1983); M. B. Hansen, S. E. Nielsen and K. Berg, J. Immunol. Methods, 119, 203 (1989), which are incorporated by reference in their entirety.), and the cancer cells tested were CCRF-HSB-2 cells (human acute lymphoblastic leukemia) and KB cells (human […]). Cytarabine (Ara-C, cytarabine: 4-amino-1-β-D-arabinofuranosyl-2(1H)-one) and 5-fluorouracil (5-FU, 5-fluorouracil) were used as control drugs, which are antimetabolite anticancer agents used for, for example, acute leukemia and/or gastrointestinal cancer.\n(§2) Human acute lymphoblastic leukemia cells (T-cells) CCRF-HSB-2 and human nasopharyngeal carcinoma-derived KB cells were cultured in RPMI 1640 medium supplemented with 10% fetal bovine serum.\n(§3) Test agents were dissolved in dimethyl sulfoxide to become a concentration of 10 mg/ml and stored at 4° C. These solutions were diluted with MEM-Hanks medium and used for the assay.\n(§4) • 1. 50 μl of the agent solution or MEM-Hanks medium was pre-filled in a 96-well plate. • 2. Cells in the logarithmic growth phase were harvested, and suspension of the cells was prepared such that the cell density is 1×10^5 cells/ml (5,000 cells/50 μl/well) and the serum concentration is 20%. The suspension 50 μl was seeded to each well. The cells were cultured in a carbon dioxide incubator at 37° C. for 3 days. • 3. After completion of the culture, 10 μl of MTT solution*(5 mg/ml in PBS-) was added to each well, and the cells were further cultured at 37° C. for 4 hours in a carbon dioxide incubator. *MTT solution: 1 g of MTT (Sigma M-2128) was dissolved in 200 ml of PBS-under light shielding, and the solution was filtrated using a 0.45 μm filter, and then stored at 4° C. If insoluble components precipitated during storage, filtration was performed again. • 4. After completion of the culture, 100 μl of 0.02 N HCl/50% N,N-dimethylformamide/20% SDS was added and stirred in each well to dissolve produced formazan. Its absorbance at 570 nm (test wavelength) and 690 nm (reference wavelength) was measured by a microplate reader (Tosoh MPR4Ai) and the proliferation inhibition rate was determined by the following formula. Inhibition rate (%)=(1−Tx/Cx)×100\n(§5) Tx: Absorbance of wells containing sample\n(§6) Cx: Absorbance of wells containing no sample (control) • 5. Inhibitory concentration showing 50% inhibition (IC50) of samples were determined by probit analysis using a computer software. [Evaluation]"}, "[2]": {"test_system": "KB cells (human nasopharyngeal carcinoma-derived)", "test": "MTT cell proliferation inhibition assay, KB cells", "assay_type": "cell-based", "conditions": "for IC50: MTT assay, cultured 3 days, probit analysis, read-out: Inhibitory concentration against tumor cell lines in vitro IC50, KB; for cell proliferation inhibitory activity compared with 5-FU, KB cells: comparison of IC50 with control drug 5-FU", "procedure": "as §1, §2, §3, §4, §5, §6"}}, "note": "Where two headings read alike, the source gives them in different places."}
{"smiles": "Cc1ccc(-c2nc3c(C)c[nH]c(=O)n3n2)cc1", "note": "[Compound 5c]", "values": [{"measurement": "IC50", "setting": "[1]", "result": 63.1, "unit": "µM"}, {"measurement": "IC50", "setting": "[2]", "result": 42.9, "unit": "µM"}]}
{"smiles": "Cc1c[nH]c(=O)n2nc(-c3ccncc3)nc12", "note": "[Compound 5q]", "values": [{"measurement": "IC50", "setting": "[1]", "result": 28.7, "unit": "µM"}, {"measurement": "IC50", "setting": "[2]", "result": 42.1, "unit": "µM"}]}
{"smiles": "Cc1c[nH]c(=O)n2nc(-c3ccc4ccccc4c3)nc12", "note": "[Compound 5r]", "values": [{"measurement": "IC50", "setting": "[1]", "result": 99.1, "unit": "µM"}, {"measurement": "IC50", "setting": "[2]", "result": "> 100", "unit": "µM"}]}
{"smiles": "COc1cc(OC)c(-c2nc3c(C)c[nH]c(=O)n3n2)c(OC)c1", "note": "[Compound 5e]", "values": [{"measurement": "IC50", "setting": "[1]", "result": "> 100", "unit": "µM"}, {"measurement": "IC50", "setting": "[2]", "result": "> 100", "unit": "µM"}]}
{"smiles": "Cc1c[nH]c(=O)n2nc(-c3ccccc3F)nc12", "note": "[Compound 5g]", "values": [{"measurement": "IC50", "setting": "[1]", "result": 48.8, "unit": "µM"}, {"measurement": "IC50", "setting": "[2]", "result": 62.4, "unit": "µM"}]}
{"smiles": "Cc1c[nH]c(=O)n2nc(-c3ccc(Cl)c(Cl)c3)nc12", "note": "[Compound 5j]", "values": [{"measurement": "IC50", "setting": "[1]", "result": 15.2, "unit": "µM"}, {"measurement": "IC50", "setting": "[2]", "result": 13.4, "unit": "µM"}]}
{"smiles": "Cc1c[nH]c(=O)n2nc(-c3ccc(C(=O)O)cc3)nc12", "note": "[Compound 5n]", "values": [{"measurement": "IC50", "setting": "[1]", "result": "> 100", "unit": "µM"}, {"measurement": "IC50", "setting": "[2]", "result": "> 100", "unit": "µM"}]}
{"smiles": "O=c1[nH]cc(F)c2nc(-c3ccc(Br)cc3)nn12", "note": "[Compound 9f]", "values": [{"measurement": "IC50", "setting": "[1]", "result": 31.5, "unit": "µM"}, {"measurement": "IC50", "setting": "[2]", "result": 28.5, "unit": "µM"}]}
{"smiles": "O=c1[nH]cc(F)c2nc(-c3ccc(Cl)c(Cl)c3)nn12", "note": "[Compound 9e]", "values": [{"measurement": "IC50", "setting": "[1]", "result": 23.6, "unit": "µM"}, {"measurement": "IC50", "setting": "[2]", "result": 28.9, "unit": "µM"}]}
{"smiles": "Cc1cnc(Cl)n2nc(-c3ccccc3)nc12", "note": "[Compound 6b]", "values": [{"measurement": "cell proliferation inhibitory activity compared with 5-FU, CCRF-HSB-2 cells", "setting": "[1]", "result": "stronger cell proliferation inhibitory activity than 5-FU"}]}
{"smiles": "Cc1cnc(Cl)n2nc(-c3ccc(C#N)cc3)nc12", "note": "[Compound 6m]", "values": [{"measurement": "cell proliferation inhibitory activity compared with 5-FU, CCRF-HSB-2 cells", "setting": "[1]", "result": "stronger cell proliferation inhibitory activity than 5-FU"}]}
{"smiles": "Cc1c[nH]c(=O)n2nc(-c3ccccc3Br)nc12", "note": "[Compound 5k]", "values": [{"measurement": "IC50", "setting": "[1]", "result": 74.5, "unit": "µM"}, {"measurement": "IC50", "setting": "[2]", "result": 92.9, "unit": "µM"}]}
{"smiles": "Cc1c[nH]c(=O)n2nc(-c3cccnc3)nc12", "note": "[Compound 5p]", "values": [{"measurement": "IC50", "setting": "[1]", "result": 59.4, "unit": "µM"}, {"measurement": "IC50", "setting": "[2]", "result": 77.5, "unit": "µM"}]}
{"smiles": "O=c1[nH]cc(F)c2nc(-c3ccccc3)nn12", "note": "[Compound 9d]", "values": [{"measurement": "IC50", "setting": "[1]", "result": 22.3, "unit": "µM"}, {"measurement": "IC50", "setting": "[2]", "result": 39, "unit": "µM"}]}
{"smiles": "Cc1c[nH]c(=O)n2nc(-c3ccc(Cl)cc3)nc12", "note": "[Compound 5i]", "values": [{"measurement": "IC50", "setting": "[1]", "result": 41.8, "unit": "µM"}, {"measurement": "IC50", "setting": "[2]", "result": 50, "unit": "µM"}]}
{"smiles": "CCc1nnc2c(C)c[nH]c(=O)n12", "note": "[Compound 4a]", "values": [{"measurement": "IC50", "setting": "[1]", "result": 78, "unit": "µM"}, {"measurement": "IC50", "setting": "[2]", "result": 82, "unit": "µM"}]}
{"smiles": "Cc1c[nH]c(=O)n2c(-c3ccccc3)nnc12", "note": "[Compound 4b]", "values": [{"measurement": "IC50", "setting": "[1]", "result": "> 100", "unit": "µM"}, {"measurement": "IC50", "setting": "[2]", "result": "> 100", "unit": "µM"}]}
{"smiles": "Cc1c[nH]c(=O)n2nc(-c3ccc(C#N)cc3)nc12", "note": "[Compound 5m]", "values": [{"measurement": "IC50", "setting": "[1]", "result": "> 100", "unit": "µM"}, {"measurement": "IC50", "setting": "[2]", "result": 23.7, "unit": "µM"}]}
{"smiles": "Nc1ccn([C@@H]2O[C@H](CO)[C@@H](O)[C@@H]2O)c(=O)n1", "note": "[AraC, 4-amino-1-β-D-arabinofuranosyl-2(1H)-one, reference compound]", "values": [{"measurement": "IC50", "setting": "[1]; Homo sapiens, 72 h", "result": 0.021, "unit": "µM"}, {"measurement": "IC50", "setting": "[2]; Homo sapiens, 72 h", "result": 0.12, "unit": "µM"}]}
{"smiles": "Cc1c[nH]c(=O)n2nc(-c3ccc(F)cc3)nc12", "note": "[Compound 5h]", "values": [{"measurement": "IC50", "setting": "[1]", "result": 55.5, "unit": "µM"}, {"measurement": "IC50", "setting": "[2]", "result": 62.4, "unit": "µM"}]}
{"smiles": "N#Cc1ccc(-c2nc3c(F)c[nH]c(=O)n3n2)cc1", "note": "[Compound 9g]", "values": [{"measurement": "IC50", "setting": "[1]", "result": 41.3, "unit": "µM"}, {"measurement": "IC50", "setting": "[2]", "result": 43.8, "unit": "µM"}]}
{"smiles": "COc1ccc(-c2nc3c(C)c[nH]c(=O)n3n2)cc1", "note": "[Compound 5d]", "values": [{"measurement": "IC50", "setting": "[1]", "result": "> 100", "unit": "µM"}, {"measurement": "IC50", "setting": "[2]", "result": "> 100", "unit": "µM"}]}
{"smiles": "Cc1cnc(Cl)n2nc(-c3ccc(Cl)c(Cl)c3)nc12", "note": "[Compound 6j]", "values": [{"measurement": "cell proliferation inhibitory activity compared with 5-FU, CCRF-HSB-2 cells", "setting": "[1]", "result": "stronger cell proliferation inhibitory activity than 5-FU"}]}
{"smiles": "O=c1[nH]cc(F)c(=O)[nH]1", "note": "[Compound 5-FU, 5-fluorouracil, reference compound]", "values": [{"measurement": "IC50", "setting": "[1]; Homo sapiens, 72 h", "result": 2.74, "unit": "µM"}, {"measurement": "IC50", "setting": "[2]; Homo sapiens, 72 h", "result": 2.24, "unit": "µM"}]}
{"smiles": "Cc1c[nH]c(=O)n2nc(-c3ccc([N+](=O)[O-])cc3)nc12", "note": "[Compound 5f]", "values": [{"measurement": "IC50", "setting": "[1]", "result": 71.6, "unit": "µM"}, {"measurement": "IC50", "setting": "[2]", "result": 1.85, "unit": "µM"}, {"measurement": "cell proliferation inhibitory activity compared with 5-FU, KB cells", "setting": "[2]", "result": "stronger cell proliferation inhibitory activity than 5-FU"}]}
{"smiles": "Cc1cnc(Cl)n2nc(-c3ccc([N+](=O)[O-])cc3)nc12", "note": "[Compound 6f]", "values": [{"measurement": "cell proliferation inhibitory activity compared with 5-FU, CCRF-HSB-2 cells", "setting": "[1]", "result": "stronger cell proliferation inhibitory activity than 5-FU"}, {"measurement": "cell proliferation inhibitory activity compared with 5-FU, KB cells", "setting": "[2]", "result": "stronger cell proliferation inhibitory activity than 5-FU"}]}
{"smiles": "Cc1c[nH]c(=O)nc1NN=Cc1ccccc1", "note": "[Compound 3b]", "values": [{"measurement": "IC50", "setting": "[1]", "result": "> 100", "unit": "µM"}, {"measurement": "IC50", "setting": "[2]", "result": "> 100", "unit": "µM"}]}
{"smiles": "CCc1nc2c(F)c[nH]c(=O)n2n1", "note": "[Compound 9c]", "values": [{"measurement": "IC50", "setting": "[1]", "result": 58.2, "unit": "µM"}, {"measurement": "IC50", "setting": "[2]", "result": 48.5, "unit": "µM"}]}
{"smiles": "Cc1c[nH]c(=O)n2nc(-c3ccccc3)nc12", "note": "[Compound 5b]", "values": [{"measurement": "IC50", "setting": "[1]", "result": 48.6, "unit": "µM"}, {"measurement": "IC50", "setting": "[2]", "result": 57.1, "unit": "µM"}]}
